9 cell lines from the supplement of paper PMC10307832 can be followed below.

Holding throughout (experiment): relative viability (nuclei count vs DMSO), 5 days (fraction); higher = more cells survive
Compound in the assay “Seliciclib + Bortezomib”: CC[C@H](CO)Nc1nc(NCc2ccccc2)c2ncn(C(C)C)c2n1 [Seliciclib] + CC(C)C[C@H](NC(=O)[C@H](Cc1ccccc1)NC(=O)c1cnccn1)B(O)O [Bortezomib] (partner 0.002 µM)
In a few lines:
(§1)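 Relative viability equals treated-well nuclei counts divided by vehicle-well nuclei counts. Counts came from 4× images of lung cancer cell lines grown in 1536-well plates for 5 days after pin-tool dosing on the day after seeding. Dosing used one drug alone or a fixed anchor-drug dose plus five library-drug doses (not always all listed) in √10 steps, and values are medians of duplicate plates.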

Compound in the assay “Seliciclib + Pemetrexed”: CC[C@H](CO)Nc1nc(NCc2ccccc2)c2ncn(C(C)C)c2n1 [Seliciclib] + Nc1nc2[nH]cc(CCc3ccc(C(=O)N[C@@H](CCC(=O)O)C(=O)O)cc3)c2c(=O)[nH]1 [Pemetrexed] (partner 0.2 µM)
In a few lines: as §1

Compound in the assay “Seliciclib + Alpelisib”: CC[C@H](CO)Nc1nc(NCc2ccccc2)c2ncn(C(C)C)c2n1 [Seliciclib] + Cc1nc(NC(=O)N2CCC[C@H]2C(N)=O)sc1-c1ccnc(C(C)(C)C(F)(F)F)c1 [Alpelisib] (partner 2 µM)
An outline of the steps: as §1

Compound in the assay “Seliciclib + Olaparib”: CC[C@H](CO)Nc1nc(NCc2ccccc2)c2ncn(C(C)C)c2n1 [Seliciclib] + O=C(c1cc(Cc2n[nH]c(=O)c3ccccc23)ccc1F)N1CCN(C(=O)C2CC2)CC1 [Olaparib] (partner 8 µM)
An outline of the steps:
as §1

For HCC-78, the relative viability with Seliciclib + Bortezomib (first compound 0.08 µM) was 0.532; with Seliciclib + Bortezomib (first compound 0.253 µM), 0.471; with Seliciclib + Bortezomib (first compound 0.8 µM), 0.433; with Seliciclib + Bortezomib (first compound 2.53 µM), 0.373; in the assay with Seliciclib + Bortezomib (first compound 8 µM), 0.396; with Seliciclib + Pemetrexed (first compound 0.08 µM), 0.852. The relative viability in the assay with Seliciclib + Pemetrexed (first compound 0.253 µM) was found to be 0.89; in the assay with Seliciclib + Pemetrexed (first compound 0.8 µM) it was 0.914; with Seliciclib + Pemetrexed (first compound 2.53 µM) it was 0.958; with Seliciclib + Pemetrexed (first compound 8 µM) it was 0.88; in the assay with Seliciclib + Alpelisib (first compound 0.08 µM), 0.375; with Seliciclib + Alpelisib (first compound 0.253 µM), 0.358. For the same cell line, the relative viability with Seliciclib + Alpelisib (first compound 0.8 µM) came to 0.329; in the assay with Seliciclib + Alpelisib (first compound 2.53 µM), 0.285; with Seliciclib + Alpelisib (first compound 8 µM), 0.339; with Seliciclib + Olaparib (first compound 0.08 µM) it was 0.693; with Seliciclib + Olaparib (first compound 0.253 µM), 0.906; with Seliciclib + Olaparib (first compound 0.8 µM), 0.695. Also, the relative viability with Seliciclib + Olaparib (first compound 2.53 µM) came to 0.604; with Seliciclib + Olaparib (first compound 8 µM), 0.499.
HCC-366: the relative viability in the assay with Seliciclib + Bortezomib (first compound 0.08 µM) was 0.987; with Seliciclib + Bortezomib (first compound 0.253 µM) it was 1.06; in the assay with Seliciclib + Bortezomib (first compound 0.8 µM) it was 1.01; in the assay with Seliciclib + Bortezomib (first compound 2.53 µM), 1.08; in the assay with Seliciclib + Bortezomib (first compound 8 µM), 0.908; with Seliciclib + Pemetrexed (first compound 0.08 µM), 0.153. For the same cell line, the relative viability was found to be 0.327 with Seliciclib + Pemetrexed (first compound 0.253 µM); 0.212 in the assay with Seliciclib + Pemetrexed (first compound 0.8 µM); 0.295 with Seliciclib + Pemetrexed (first compound 2.53 µM); 0.241 in the assay with Seliciclib + Pemetrexed (first compound 8 µM); 0.367 with Seliciclib + Alpelisib (first compound 0.08 µM); 0.302 with Seliciclib + Alpelisib (first compound 0.253 µM). Besides, the relative viability with Seliciclib + Alpelisib (first compound 0.8 µM) worked out at 0.342; with Seliciclib + Alpelisib (first compound 2.53 µM), 0.344; in the assay with Seliciclib + Alpelisib (first compound 8 µM), 0.371; in the assay with Seliciclib + Olaparib (first compound 0.08 µM), 0.335; with Seliciclib + Olaparib (first compound 0.253 µM), 0.422; with Seliciclib + Olaparib (first compound 0.8 µM), 0.35. In addition, the relative viability in the assay with Seliciclib + Olaparib (first compound 2.53 µM) was 0.456; with Seliciclib + Olaparib (first compound 8 µM) it was 0.234.
As to HCC-827, the relative viability with Seliciclib + Bortezomib (first compound 0.08 µM) amounted to 1.08; with Seliciclib + Bortezomib (first compound 0.253 µM), 1.03; in the assay with Seliciclib + Bortezomib (first compound 0.8 µM), 1.05; with Seliciclib + Bortezomib (first compound 2.53 µM), 1.04; in the assay with Seliciclib + Bortezomib (first compound 8 µM) it was 0.881; with Seliciclib + Pemetrexed (first compound 0.08 µM) it was 0.251. Moreover, the relative viability was 0.241 with Seliciclib + Pemetrexed (first compound 0.253 µM); 0.258 with Seliciclib + Pemetrexed (first compound 0.8 µM); 0.297 with Seliciclib + Pemetrexed (first compound 2.53 µM); 0.258 with Seliciclib + Pemetrexed (first compound 8 µM); 1.01 in the assay with Seliciclib + Alpelisib (first compound 0.08 µM); 1.01 with Seliciclib + Alpelisib (first compound 0.253 µM). Also, the relative viability came to 1 in the assay with Seliciclib + Alpelisib (first compound 0.8 µM); 1.04 with Seliciclib + Alpelisib (first compound 2.53 µM); 0.784 with Seliciclib + Alpelisib (first compound 8 µM); 0.623 with Seliciclib + Olaparib (first compound 0.08 µM); 0.66 with Seliciclib + Olaparib (first compound 0.253 µM); 0.644 with Seliciclib + Olaparib (first compound 0.8 µM). In addition, the relative viability was 0.612 in the assay with Seliciclib + Olaparib (first compound 2.53 µM) and 0.624 with Seliciclib + Olaparib (first compound 8 µM).
Turning to HOP-62, the relative viability in the assay with Seliciclib + Bortezomib (first compound 0.08 µM) was 0.837; in the assay with Seliciclib + Bortezomib (first compound 0.253 µM), 0.754; in the assay with Seliciclib + Bortezomib (first compound 0.8 µM) it was 0.684; with Seliciclib + Bortezomib (first compound 2.53 µM) it was 0.868; with Seliciclib + Bortezomib (first compound 8 µM), 0.331; with Seliciclib + Pemetrexed (first compound 0.08 µM), 0.285. Besides, the relative viability with Seliciclib + Pemetrexed (first compound 0.253 µM) worked out at 0.326; in the assay with Seliciclib + Pemetrexed (first compound 0.8 µM), 0.383; with Seliciclib + Pemetrexed (first compound 2.53 µM) it was 0.339; with Seliciclib + Pemetrexed (first compound 8 µM), 0.351; in the assay with Seliciclib + Alpelisib (first compound 0.08 µM) it was 1.03; in the assay with Seliciclib + Alpelisib (first compound 0.253 µM) it was 0.811. The relative viability came to 0.942 with Seliciclib + Alpelisib (first compound 0.8 µM); 1.05 with Seliciclib + Alpelisib (first compound 2.53 µM); 0.829 in the assay with Seliciclib + Alpelisib (first compound 8 µM); 0.445 in the assay with Seliciclib + Olaparib (first compound 0.08 µM); 0.398 with Seliciclib + Olaparib (first compound 0.253 µM); 0.299 with Seliciclib + Olaparib (first compound 0.8 µM). For the same cell line, the figures for the relative viability with Seliciclib + Olaparib (first compound 2.53 µM) and with Seliciclib + Olaparib (first compound 8 µM) were 0.264 and 0.391, respectively.
As to IA-LM, the relative viability turned out to be 0.78 with Seliciclib + Bortezomib (first compound 0.08 µM); 0.94 with Seliciclib + Bortezomib (first compound 0.253 µM); 0.708 with Seliciclib + Bortezomib (first compound 0.8 µM); 0.817 with Seliciclib + Bortezomib (first compound 2.53 µM); 0.729 in the assay with Seliciclib + Bortezomib (first compound 8 µM); 0.645 in the assay with Seliciclib + Alpelisib (first compound 0.08 µM). The relative viability with Seliciclib + Alpelisib (first compound 0.253 µM) is 0.935; with Seliciclib + Alpelisib (first compound 0.8 µM), 0.599; with Seliciclib + Alpelisib (first compound 2.53 µM) it was 0.979; with Seliciclib + Alpelisib (first compound 8 µM), 0.556; with Seliciclib + Olaparib (first compound 0.08 µM) it was 0.8; in the assay with Seliciclib + Olaparib (first compound 0.253 µM), 0.973. The relative viability with Seliciclib + Olaparib (first compound 0.8 µM) worked out at 0.879; with Seliciclib + Olaparib (first compound 2.53 µM), 0.72; in the assay with Seliciclib + Olaparib (first compound 8 µM) it was 0.745.
With LK-2, the relative viability turned out to be 0.25 in the assay with Seliciclib + Pemetrexed (first compound 0.08 µM); 0.274 with Seliciclib + Pemetrexed (first compound 0.253 µM); 0.266 in the assay with Seliciclib + Pemetrexed (first compound 0.8 µM); 0.166 with Seliciclib + Pemetrexed (first compound 2.53 µM); 0.195 with Seliciclib + Pemetrexed (first compound 8 µM); 1.05 in the assay with Seliciclib + Alpelisib (first compound 0.08 µM). Besides, the relative viability was determined as 0.968 with Seliciclib + Alpelisib (first compound 0.253 µM); 0.955 with Seliciclib + Alpelisib (first compound 0.8 µM); 1.17 in the assay with Seliciclib + Alpelisib (first compound 2.53 µM); 0.822 with Seliciclib + Alpelisib (first compound 8 µM); 0.817 with Seliciclib + Olaparib (first compound 0.08 µM); 0.723 with Seliciclib + Olaparib (first compound 0.253 µM). Also, the relative viability came out at 0.739 with Seliciclib + Olaparib (first compound 0.8 µM), 0.398 with Seliciclib + Olaparib (first compound 2.53 µM) and 0.718 with Seliciclib + Olaparib (first compound 8 µM).
As to NCI-H358, the relative viability worked out at 0.17 in the assay with Seliciclib + Pemetrexed (first compound 0.08 µM); 0.178 with Seliciclib + Pemetrexed (first compound 0.253 µM); 0.167 in the assay with Seliciclib + Pemetrexed (first compound 0.8 µM); 0.159 with Seliciclib + Pemetrexed (first compound 2.53 µM); 0.169 with Seliciclib + Pemetrexed (first compound 8 µM); 0.789 with Seliciclib + Alpelisib (first compound 0.08 µM). The relative viability with Seliciclib + Alpelisib (first compound 0.253 µM) came to 0.887; with Seliciclib + Alpelisib (first compound 0.8 µM), 0.913; in the assay with Seliciclib + Alpelisib (first compound 2.53 µM), 0.741; with Seliciclib + Alpelisib (first compound 8 µM), 0.444; in the assay with Seliciclib + Olaparib (first compound 0.08 µM) it was 0.588; with Seliciclib + Olaparib (first compound 0.253 µM), 0.595. Also, the relative viability was found to be 0.546 with Seliciclib + Olaparib (first compound 0.8 µM), 0.561 with Seliciclib + Olaparib (first compound 2.53 µM) and 0.346 with Seliciclib + Olaparib (first compound 8 µM).
On to NCI-H522, for which the relative viability with Seliciclib + Pemetrexed (first compound 0.08 µM) was found to be 1.11; in the assay with Seliciclib + Pemetrexed (first compound 0.253 µM), 0.917; with Seliciclib + Pemetrexed (first compound 0.8 µM), 1.18; with Seliciclib + Pemetrexed (first compound 2.53 µM), 1.01; with Seliciclib + Pemetrexed (first compound 8 µM), 0.914; with Seliciclib + Olaparib (first compound 0.08 µM), 0.797. Moreover, the relative viability is 0.621 with Seliciclib + Olaparib (first compound 0.253 µM), 0.533 with Seliciclib + Olaparib (first compound 0.8 µM), 0.64 with Seliciclib + Olaparib (first compound 2.53 µM) and 0.59 in the assay with Seliciclib + Olaparib (first compound 8 µM).
For the cell line NCI-H727, the relative viability worked out at 0.759 in the assay with Seliciclib + Bortezomib (first compound 0.08 µM); 0.774 with Seliciclib + Bortezomib (first compound 0.253 µM); 0.578 with Seliciclib + Bortezomib (first compound 0.8 µM); 0.585 in the assay with Seliciclib + Bortezomib (first compound 2.53 µM); 0.716 with Seliciclib + Bortezomib (first compound 8 µM); 0.571 with Seliciclib + Alpelisib (first compound 0.08 µM). For the same cell line, the relative viability worked out at 0.696 in the assay with Seliciclib + Alpelisib (first compound 0.253 µM); 0.49 in the assay with Seliciclib + Alpelisib (first compound 0.8 µM); 0.526 with Seliciclib + Alpelisib (first compound 2.53 µM); 0.538 in the assay with Seliciclib + Alpelisib (first compound 8 µM); 0.873 with Seliciclib + Olaparib (first compound 0.08 µM); 0.805 with Seliciclib + Olaparib (first compound 0.253 µM). Also, the figures for the relative viability in the assay with Seliciclib + Olaparib (first compound 0.8 µM), with Seliciclib + Olaparib (first compound 2.53 µM) and in the assay with Seliciclib + Olaparib (first compound 8 µM) were 0.596, 0.74 and 0.731, respectively.
